PMC7048748, “Anxiolytic Drug FGIN-1-27 Ameliorates Autoimmunity by Metabolic Reprogramming of Pathogenic Th17 Cells” (Scientific Reports, 2020)

Key:
Th17 cells [1] = assay: Transcript levels by qPCR in Th17 cells; assay type: cell-based, mouse
Procedure: Figure 1 FGIN-1-27 Inhibits Th17 Differentiation. Naïve CD4 T cells from spleens and lymph nodes of C57BL/6 mice were differentiated under Th17 polarization conditions and were treated with DMSO (control) or FGIN-1-27. (a) Dose response plot showing effect of FGIN-1-27 on intracellular IL-17 and viability on day 4 post activation quantified by flow cytometry. Data is normalized against DMSO (100%). […] (b) Dot plots showing DMSO or FGIN-1-27 treated cells stained for surface CD4, CD44, intracellular IL-17 and intranuclear RORγt. (c) Transcript levels for the indicated genes after 24 hours of treatment with DMSO or FGIN-1-27 quantified by qPCR. Data was normalized to a housekeeping gene, β-actin. Data are representative of at least 3 independent experiments and the error bars indicate standard deviation.
Figure 5 FGIN-1-27 induces amino acid starvation response (AAR). (a) MA-plot showing shrunken log2 fold-changes of detected genes between the DMSO and FGIN-1-27 RNA-seq samples, ranked by average normalized count. Red dots indicate differentially expressed genes at adjusted p-value <0.05. (b) Transcript levels for the indicated genes after 24 hours of treatment with DMSO or FGIN-1-27 quantified by qPCR. The error bars represent SD. (c) Western blot analysis for phosphorylated eIF2α and ATF4 24 hours after treatment with DMSO or FGIN-1-27 (5 and 10 µM). Data are representative of 3 independent experiments. (d) Amino acids in Th17 cells measured 72 hours after treatment with FGIN-1-27. The error bars represent SD. (e) ROS was measured using cell permeant reagent 2′,7′ –dichlorofluorescin diacetate (DCFDA) at 24 hours following treatment with FGIN-1-27. Filled grey histogram-DMSO, dotted line-FGIN-1-27 (10 µM) and dashed line indicates FGIN-1-27 (5 µM). […]
Total RNA extractions were performed with the RNAeasy kit (Qiagen) followed by cDNA synthesis using High capacity cDNA Reverse Transcription kit (Applied Biosystems). Quantitative PCR was performed on a ViiA 7 (Applied Biosystems) using SYBR Fast qPCR master mix (Kapa Biosystems). […]

Th17 cells [2] = assay: Cholesterol panel (sterols) in Th17 cells; assay type: cell-based, mouse; details: 72 hours; for 7-DHC / 7-HC / -SITO / CAMP / CHOL / COPR / CSTN: Cholestanol / DESM / LANO / LATH / SQUA / STIG / ZYMO: Cell
Procedure: Specific cholesterol precursors like desmosterol and oxysterols, such as 7β, 27-dihydroxycholesterol (7β, 27-OHC), have been identified as ligands for RORγt[21],[22] and shown to modulate Th17 differentiation. […] Next, we extended our studies to lipid metabolites and profiled the lipidome of Th17 cells treated with DMSO or FGIN-1-27. […]
(a) Indicated sterols were measured in Th17 cells treated with DMSO or FGIN-1-27 for
(1 picture or pasted object on this page, not shown here)

Structure (SMILES): CCCCCCN(CCCCCC)C(=O)Cc1c(-c2ccc(F)cc2)[nH]c2ccccc12 [FGIN-1-27, N, N-di-n-hexyl 2-(4-fluorophenyl) indole-3-acetamide]
- ATF4 target genes Asns and Gpt2 (Th17 cells [1]; 24 hours): induced
- expression of RORγt target genes (Il17a, Il17f, Il23r, Ltb4r1, Ccr6) and Stat3 (Th17 cells [1]; 24 hours of treatment, p < 0.0001): significantly downregulated
- CD5L transcript (Th17 cells [1]; 72 hours post treatment): substantial up-regulation
- levels of cholesterol, its precursors and oxysterols (Th17 cells [2]; vs DMSO): comparable
- 7-DHC (Th17 cells [2]): 21.45 nMoles/billion
- 7-HC (Th17 cells [2]): 0.68 nMoles/billion
- -SITO (Th17 cells [2]): 1.81 nMoles/billion
- CAMP (Th17 cells [2]): 4.37 nMoles/billion
- CHOL (Th17 cells [2]): 1426.96 nMoles/billion
- COPR (Th17 cells [2]): 0.37 nMoles/billion
- CSTN: Cholestanol (Th17 cells [2]): 2.54 nMoles/billion
- DESM (Th17 cells [2]): 26.06 nMoles/billion
- LANO (Th17 cells [2]): 0.57 nMoles/billion
- LATH (Th17 cells [2]): 10.58 nMoles/billion
- SQUA (Th17 cells [2]): 13.58 nMoles/billion
- STIG (Th17 cells [2]): 0.09 nMoles/billion
- ZYMO (Th17 cells [2]): 0.37 nMoles/billion
- 7-DHC (Th17 cells [2]; listed as FGIN2): 29.74 nMoles/billion
- 7-HC (Th17 cells [2]; listed as FGIN2): 1.01 nMoles/billion
- -SITO (Th17 cells [2]; listed as FGIN2): 66.45 nMoles/billion
- CAMP (Th17 cells [2]; listed as FGIN2): 6.00 nMoles/billion
- CHOL (Th17 cells [2]; listed as FGIN2): 1968.79 nMoles/billion
- COPR (Th17 cells [2]; listed as FGIN2): 0.04 nMoles/billion
- CSTN: Cholestanol (Th17 cells [2]; listed as FGIN2): 5.53 nMoles/billion
- DESM (Th17 cells [2]; listed as FGIN2): 47.55 nMoles/billion
- LANO (Th17 cells [2]; listed as FGIN2): 0.96 nMoles/billion
- LATH (Th17 cells [2]; listed as FGIN2): 13.90 nMoles/billion
- SQUA (Th17 cells [2]; listed as FGIN2): 16.54 nMoles/billion
- STIG (Th17 cells [2]; listed as FGIN2): 8.18 nMoles/billion
- ZYMO (Th17 cells [2]; listed as FGIN2): 0.44 nMoles/billion
- 7-DHC (Th17 cells [2]; listed as FGIN3): 22.18 nMoles/billion
- 7-HC (Th17 cells [2]; listed as FGIN3): 1.04 nMoles/billion
- -SITO (Th17 cells [2]; listed as FGIN3): 2.54 nMoles/billion
- CAMP (Th17 cells [2]; listed as FGIN3): 7.76 nMoles/billion
- CHOL (Th17 cells [2]; listed as FGIN3): 2113.85 nMoles/billion
- COPR (Th17 cells [2]; listed as FGIN3): 0.0757 nMoles/billion
- CSTN: Cholestanol (Th17 cells [2]; listed as FGIN3): 4.07 nMoles/billion
- DESM (Th17 cells [2]; listed as FGIN3): 37.52 nMoles/billion
- LANO (Th17 cells [2]; listed as FGIN3): 0.93 nMoles/billion
- LATH (Th17 cells [2]; listed as FGIN3): 15.86 nMoles/billion
- SQUA (Th17 cells [2]; listed as FGIN3): 17.48 nMoles/billion
- STIG (Th17 cells [2]; listed as FGIN3): 0.73 nMoles/billion
- ZYMO (Th17 cells [2]; listed as FGIN3): 0.68 nMoles/billion
- 7-DHC (Th17 cells [2]; listed as FGIN4): 17.23 nMoles/billion
- 7-HC (Th17 cells [2]; listed as FGIN4): 0.75 nMoles/billion
- -SITO (Th17 cells [2]; listed as FGIN4): 1.38 nMoles/billion
- CAMP (Th17 cells [2]; listed as FGIN4): 4.69 nMoles/billion
- CHOL (Th17 cells [2]; listed as FGIN4): 1456.01 nMoles/billion
- COPR (Th17 cells [2]; listed as FGIN4): 0.06 nMoles/billion
- CSTN: Cholestanol (Th17 cells [2]; listed as FGIN4): 2.93 nMoles/billion
- DESM (Th17 cells [2]; listed as FGIN4): 26.10 nMoles/billion
- LANO (Th17 cells [2]; listed as FGIN4): 0.61 nMoles/billion
- LATH (Th17 cells [2]; listed as FGIN4): 10.88 nMoles/billion
- SQUA (Th17 cells [2]; listed as FGIN4): 2.92 nMoles/billion
- STIG (Th17 cells [2]; listed as FGIN4): 0.05 nMoles/billion
- ZYMO (Th17 cells [2]; listed as FGIN4): 0.40 nMoles/billion
